Results from patent US9750809B2, “Cancer treatment” (MOREX DEVELOPMENT PARTNERS LLP, priority 2012, dated 2017).

Key:
[1] = tested on: SCCVII squamous cell carcinomas
Description: Mice were euthanized when the tumour volume reached 500 mm^3; and
SCCVII murine squamous cell carcinoma cells were cultured in D-MEM enriched with 10% fetal bovine serum, 1% penicillin/streptomycin and 1% L-glutamine. Only passages 1-3 were used to initiate tumours. Cells (2×10^5 in 0.05 mL of medium) were then implanted sc into the left thighs of 20-25 g female C3H mice (Charles River Laboratories, Wilmington, Mass.).
Due to the large number of animals to be dosed and irradiated, it was necessary to split the animals into two equally sized groups: Groups A and B. Animals in each Group A were injected on day 7 after tumour implantation, while animals in each Group B were injected on day 8 post tumour implantation.
The animals in Group A were irradiated 8 days, and those in Groups B were irradiated 9 days after tumour implantation. Mice were anesthetized (sodium pentobarbital, ˜60 μg/g i.p.) and positioned for irradiation with the tumour-bearing leg extended across a 2-cm diameter collimated irradiation port. Tumours were irradiated using a single dose fraction of 32 gy at a dose-rate of 2.0 Gy/min using a Philips RT-100 set, operating at 100 kVp and 8 mA.
Tumours were measured 2-3 times per week and the mice were killed humanely when the calculated tumour volume (x^2y/2, where x is the shorter surface dimension) exceeded 500 mm^3.
Dosimetry for X-irradiation was carried out using a thimble ionization chamber applying the 1996 IPEB code of practice.

[2] = mouse, in vivo
Description: Direct current plasma-atomic emission spectroscopy [DCP-AES] (ARL/Fisons Model SS-7) was used (detection limit: 0.1 μg B/mL) to determine boron concentrations in tissues of individual mice. Samples (50-130 mg) were digested at 60° C. with sulfuric acid:nitric acid (1:1). Triton X-100 and water were added to give final concentrations of ˜50 mg tissue/mL, 15% total acid v/v and 5% Triton X-100 v/v. […] It is known that the ether linkages between the porphyrin and carborane cages remain intact in vivo.

[3] = 150 mg/kg MTL005 + 32 Gy vs 32 Gy alone
[4] = 150 mg/kg MTL005 i.p. one day prior to 32 Gy X-rays, 11 mice

copper meso-5,15-bis[3-[(1,2-dicarba-closo-dodecaboranyl)methoxy]phenyl]-meso-10,20-dinitroporphyrin [MTL005]
Number of surviving mice compared with X-rays alone [1, 3]: higher
Tumour control compared with X-rays alone (Kaplan-Meier, FIG. 2) [1, 3]: greater tumour control
% Tumour control [1, 4]: 54.5%
Controlled tumours (volume of 0 mm^3), number of mice [1, 4]: 6
Mice alive at 62 days with observable tumours [1, 4]: 2
Number of controlled tumours compared to radiation alone ([1]; 32 Gy): doubled
Retention of active sensitiser in the tumour after single administration [2]: still a significant concentration of active sensitiser in the tumour
